Calls of active or inactive are those of the source. The calls are words filed in the database; no cut-off is given here.
Columns and labels:
[1] = target: T1, Serine/threonine-protein kinase 3 (Homo sapiens) (UniProt Q13188); test: Binding affinity to recombinant MST2 (unknown origin) assessed as stabilization by measuring change in melting temperature at 10 uM by SYPRO orange dye based differential scanning fluorimetry assay
T1 sequence (whole entry): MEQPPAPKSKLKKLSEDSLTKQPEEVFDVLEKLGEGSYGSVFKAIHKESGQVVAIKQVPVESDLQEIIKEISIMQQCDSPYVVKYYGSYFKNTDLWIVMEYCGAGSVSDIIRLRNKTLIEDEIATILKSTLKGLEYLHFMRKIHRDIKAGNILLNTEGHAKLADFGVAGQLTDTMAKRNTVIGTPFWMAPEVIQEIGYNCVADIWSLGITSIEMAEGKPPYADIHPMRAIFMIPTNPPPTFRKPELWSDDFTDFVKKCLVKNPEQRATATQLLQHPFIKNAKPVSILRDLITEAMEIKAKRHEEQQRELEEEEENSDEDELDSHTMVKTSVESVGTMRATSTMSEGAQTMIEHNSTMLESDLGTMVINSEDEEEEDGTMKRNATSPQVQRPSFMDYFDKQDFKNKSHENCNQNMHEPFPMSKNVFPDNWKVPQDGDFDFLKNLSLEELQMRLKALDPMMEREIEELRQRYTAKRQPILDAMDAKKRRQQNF

[2] = target: Serine/threonine-protein kinase 26 (Homo sapiens) (UniProt Q9P289); test: Binding affinity to recombinant MST4 (unknown origin) assessed as stabilization by measuring change in melting temperature at 10 uM by SYPRO orange dye based differential scanning fluorimetry assay
[3] = target: Serine/threonine-protein kinase PAK 1 (Homo sapiens) (UniProt Q13153); test: Binding affinity to recombinant PAK1 (unknown origin) assessed as stabilization by measuring change in melting temperature at 10 uM by SYPRO orange dye based differential scanning fluorimetry assay
Ephrin type-A receptor 2 [4] = target: T2, Ephrin type-A receptor 2 (Homo sapiens, UniProt P29317); test: Binding affinity to recombinant EPHA2 (unknown origin) assessed as stabilization by measuring change in melting temperature at 10 uM by SYPRO orange dye based differential scanning fluorimetry assay
[5] = target: Tyrosine-protein kinase ABL1 (Homo sapiens, UniProt P00519); test: Binding affinity to recombinant ABL1 (unknown origin) assessed as stabilization by measuring change in melting temperature at 10 uM by SYPRO orange dye based differential scanning fluorimetry assay
[6] = target: Ephrin type-B receptor 1 (Homo sapiens) (UniProt P54762); test: Binding affinity to recombinant EPHB1 (unknown origin) assessed as stabilization by measuring change in melting temperature at 10 uM by SYPRO orange dye based differential scanning fluorimetry assay
[7] = target: Cyclin-G-associated kinase (Homo sapiens) (UniProt O14976); test: Binding affinity to recombinant GAK (unknown origin) assessed as stabilization by measuring change in melting temperature at 10 uM by SYPRO orange dye based differential scanning fluorimetry assay
Ephrin type-A receptor 4 [8] = target: T3, Ephrin type-A receptor 4 (Homo sapiens, UniProt P54764); test: Binding affinity to recombinant EPHA4 (unknown origin) assessed as stabilization by measuring change in melting temperature at 10 uM by SYPRO orange dye based differential scanning fluorimetry assay
Ephrin type-A receptor 2 [9] = target: T2, Ephrin type-A receptor 2; test: Inhibition of full length NanoLuc fused EPHA2 (unknown origin) transfected in HEK293T cells using NanoBRET NanoGlo substrate incubated for 2 hrs in presence of tracer by NanoBRET assay; format: cell-based
[10] = target: Cyclin-G-associated kinase (Homo sapiens, UniProt O14976); test: Inhibition of full length NanoLuc fused GAK (unknown origin) transfected in HEK293T cells using NanoBRET NanoGlo substrate incubated for 2 hrs in presence of tracer by NanoBRET assay; format: cell-based
Ephrin type-B receptor 3 = Ephrin type-B receptor 3 (Homo sapiens, UniProt P54753); test: Inhibition of full length NanoLuc fused EPHB3 (unknown origin) transfected in HEK293T cells using NanoBRET NanoGlo substrate incubated for 2 hrs in presence of tracer by NanoBRET assay; format: cell-based
Ephrin type-A receptor 4 [11] = target: T3, Ephrin type-A receptor 4; test: Inhibition of full length NanoLuc fused EPHA4 (unknown origin) transfected in HEK293T cells using NanoBRET NanoGlo substrate incubated for 2 hrs in presence of tracer by NanoBRET assay; format: cell-based
Ephrin type-A receptor 3 = Ephrin type-A receptor 3 (Homo sapiens, UniProt P29320); test: Inhibition of full length NanoLuc fused EPHA3 (unknown origin) transfected in HEK293T cells using NanoBRET NanoGlo substrate incubated for 2 hrs in presence of tracer by NanoBRET assay; format: cell-based
Ephrin type-B receptor 2 = Ephrin type-B receptor 2 (Homo sapiens, UniProt P29323); test: Inhibition of full length NanoLuc fused EPHB2 (unknown origin) transfected in HEK293T cells using NanoBRET NanoGlo substrate incubated for 2 hrs in presence of tracer by NanoBRET assay; format: cell-based
[12] = target: Serine/threonine-protein kinase SIK2 (Homo sapiens) (UniProt Q9H0K1); test: Inhibition of recombinant human GST-tagged SIK2 assessed as downregulation of SIK2 phosphorylation at Ser358 a 5 uM incubated for 30 mins by Western blotting analysis
[13] = target: Serine/threonine-protein kinase SIK2 (Homo sapiens) (UniProt Q9H0K1); test: Inhibition of SIK2 in human SK-OV-3 cells assessed as decrease in centrosome dissociation in G2 phase at 5 uM incubated for 48 hrs by immunofluorescence assay; format: cell-based
SK-OV-3 [14] = test: Induction of cell cycle arrest in human SK-OV-3 cells assessed as accumulation of cells at G1 phase at 5 uM incubated for 24 hrs by flow cytometry (reference value: 34%); format: functional
[15] = target: Serine/threonine-protein kinase SIK2 (Homo sapiens) (UniProt Q9H0K1); test: Inhibition of SIK2 in human SK-OV-3 cells assessed as downregulation of AKT phosphorylation at Ser473 at 5 uM incubated for 48 hrs by Western blotting analysis; format: cell-based
[16] = target: Serine/threonine-protein kinase SIK2 (Homo sapiens) (UniProt Q9H0K1); test: Inhibition of SIK2 in human SK-OV-3 cells assessed as upregulation of PLK expression level at 5 uM incubated for 48 hrs by Western blotting analysis; format: cell-based
HCT-116 [17] = test: Cytotoxicity against human HCT-116 cells assessed as reduction in cell count at 1 uM incubated for >60 hrs by Hoechst-33342 staining high-content imaging analysis; format: toxicity, cell-based; details: hct-116, 60 h
HCT-116 [18] = test: Cytotoxicity against human HCT-116 cells assessed as appearance of pyknosis nuclei at 1 uM incubated for 80 hrs by Hoechst-33342 staining high-content imaging analysis; format: toxicity, cell-based; details: hct-116, 80 h
HCT-116 [19] = test: Cytotoxicity against human HCT-116 cells assessed as appearance of pyknosis nuclei at 10 uM incubated for 80 hrs by Hoechst-33342 staining high-content imaging analysis; format: toxicity, cell-based; details: hct-116, 80 h
[20] = Drug metabolism in Sprague-Dawley rat liver microsomes assessed as compound metabolized incubated for 60 mins in presence of NADPH by HPLC analysis; format: ADME, Microsome; details: 1 h
SK-OV-3 [21] = test: Induction of cell cycle arrest in human SK-OV-3 cells assessed as accumulation of cells at interphase at 5 uM incubated for 24 hrs by flow cytometry; format: functional
[22] = Binding affinity to recombinant RSK1b (unknown origin) assessed as stabilization by measuring change in melting temperature at 10 uM by SYPRO orange dye based differential scanning fluorimetry assay; details: Homo sapiens

Chain of Serine/threonine-protein kinase SIK2 (Homo sapiens) (Q9H0K1 whole entry, looked up): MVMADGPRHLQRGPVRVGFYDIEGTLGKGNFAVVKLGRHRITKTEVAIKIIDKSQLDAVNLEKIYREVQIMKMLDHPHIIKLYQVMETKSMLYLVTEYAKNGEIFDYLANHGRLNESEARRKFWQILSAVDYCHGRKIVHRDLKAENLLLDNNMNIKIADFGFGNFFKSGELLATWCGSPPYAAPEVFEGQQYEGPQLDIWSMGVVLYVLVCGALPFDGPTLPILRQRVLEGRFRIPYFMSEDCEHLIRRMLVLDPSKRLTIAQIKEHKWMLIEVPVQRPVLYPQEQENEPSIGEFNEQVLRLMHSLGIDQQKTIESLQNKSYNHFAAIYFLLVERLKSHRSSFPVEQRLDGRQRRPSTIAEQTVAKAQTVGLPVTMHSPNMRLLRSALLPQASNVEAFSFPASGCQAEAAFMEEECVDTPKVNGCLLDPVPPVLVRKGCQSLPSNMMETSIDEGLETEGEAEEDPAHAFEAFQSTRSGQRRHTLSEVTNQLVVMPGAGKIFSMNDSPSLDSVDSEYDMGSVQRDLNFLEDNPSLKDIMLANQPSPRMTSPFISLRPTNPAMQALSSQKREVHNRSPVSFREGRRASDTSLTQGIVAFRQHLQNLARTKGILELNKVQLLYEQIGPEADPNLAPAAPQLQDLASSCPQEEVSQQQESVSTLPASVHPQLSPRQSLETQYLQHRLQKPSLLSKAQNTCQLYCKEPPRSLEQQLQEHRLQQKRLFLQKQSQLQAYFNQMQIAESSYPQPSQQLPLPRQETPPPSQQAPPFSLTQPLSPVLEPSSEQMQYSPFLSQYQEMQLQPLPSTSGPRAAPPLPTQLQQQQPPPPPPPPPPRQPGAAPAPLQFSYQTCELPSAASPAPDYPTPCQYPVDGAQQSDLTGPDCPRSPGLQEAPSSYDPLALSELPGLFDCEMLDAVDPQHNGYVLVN
T2 sequence (P29317 whole entry): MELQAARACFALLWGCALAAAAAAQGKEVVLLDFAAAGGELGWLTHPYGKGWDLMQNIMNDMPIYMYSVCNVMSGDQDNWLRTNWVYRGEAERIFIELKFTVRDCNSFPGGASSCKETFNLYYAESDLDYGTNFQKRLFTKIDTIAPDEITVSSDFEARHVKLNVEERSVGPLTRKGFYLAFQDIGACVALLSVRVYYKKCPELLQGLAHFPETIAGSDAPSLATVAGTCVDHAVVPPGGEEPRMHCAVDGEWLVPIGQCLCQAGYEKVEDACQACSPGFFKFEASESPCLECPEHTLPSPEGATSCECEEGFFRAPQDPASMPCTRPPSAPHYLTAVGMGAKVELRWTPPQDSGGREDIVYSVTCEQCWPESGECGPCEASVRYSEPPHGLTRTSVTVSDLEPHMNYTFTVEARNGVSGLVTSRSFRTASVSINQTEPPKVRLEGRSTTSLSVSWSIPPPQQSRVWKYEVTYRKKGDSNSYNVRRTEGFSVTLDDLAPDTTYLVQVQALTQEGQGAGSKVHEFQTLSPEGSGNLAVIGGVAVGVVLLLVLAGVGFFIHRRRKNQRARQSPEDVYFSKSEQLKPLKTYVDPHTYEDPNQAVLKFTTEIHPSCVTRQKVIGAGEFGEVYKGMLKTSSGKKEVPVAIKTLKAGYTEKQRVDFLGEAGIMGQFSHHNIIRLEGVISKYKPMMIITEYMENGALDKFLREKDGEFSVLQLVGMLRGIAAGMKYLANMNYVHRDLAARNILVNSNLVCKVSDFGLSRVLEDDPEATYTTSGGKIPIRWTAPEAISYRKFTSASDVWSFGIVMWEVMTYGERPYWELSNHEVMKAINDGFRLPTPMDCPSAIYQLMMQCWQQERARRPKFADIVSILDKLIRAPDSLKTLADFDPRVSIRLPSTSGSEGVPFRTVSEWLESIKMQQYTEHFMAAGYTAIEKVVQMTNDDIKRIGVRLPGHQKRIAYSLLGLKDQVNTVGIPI
T3 sequence (P54764 whole entry, the tested form may be a part): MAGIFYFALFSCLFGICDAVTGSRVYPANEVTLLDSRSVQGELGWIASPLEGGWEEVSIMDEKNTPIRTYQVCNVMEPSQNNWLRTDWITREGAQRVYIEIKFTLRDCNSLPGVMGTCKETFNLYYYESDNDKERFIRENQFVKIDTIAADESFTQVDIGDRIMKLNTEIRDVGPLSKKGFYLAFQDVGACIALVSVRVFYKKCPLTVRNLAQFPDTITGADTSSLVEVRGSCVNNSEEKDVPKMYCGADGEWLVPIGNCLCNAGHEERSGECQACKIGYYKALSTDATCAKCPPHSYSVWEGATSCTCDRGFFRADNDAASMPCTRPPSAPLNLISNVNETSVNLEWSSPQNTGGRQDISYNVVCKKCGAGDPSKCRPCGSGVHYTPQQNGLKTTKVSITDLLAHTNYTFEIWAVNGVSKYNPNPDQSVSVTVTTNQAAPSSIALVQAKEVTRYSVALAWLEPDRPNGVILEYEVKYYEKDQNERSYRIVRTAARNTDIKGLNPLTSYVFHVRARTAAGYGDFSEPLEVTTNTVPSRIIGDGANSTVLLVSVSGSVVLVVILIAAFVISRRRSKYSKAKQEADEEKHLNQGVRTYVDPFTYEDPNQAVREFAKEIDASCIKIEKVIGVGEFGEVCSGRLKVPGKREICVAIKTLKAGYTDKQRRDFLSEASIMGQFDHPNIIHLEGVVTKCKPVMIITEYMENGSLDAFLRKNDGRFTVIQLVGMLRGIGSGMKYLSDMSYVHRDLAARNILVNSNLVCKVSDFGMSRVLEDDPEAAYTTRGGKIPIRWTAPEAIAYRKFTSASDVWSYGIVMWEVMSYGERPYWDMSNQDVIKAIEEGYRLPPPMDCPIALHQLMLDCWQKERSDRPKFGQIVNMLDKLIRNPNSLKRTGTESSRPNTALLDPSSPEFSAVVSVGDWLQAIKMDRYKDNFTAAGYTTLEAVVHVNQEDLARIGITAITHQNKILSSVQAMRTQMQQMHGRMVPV
Chain of Ephrin type-B receptor 2 (P29323 whole entry, the tested form may be a part): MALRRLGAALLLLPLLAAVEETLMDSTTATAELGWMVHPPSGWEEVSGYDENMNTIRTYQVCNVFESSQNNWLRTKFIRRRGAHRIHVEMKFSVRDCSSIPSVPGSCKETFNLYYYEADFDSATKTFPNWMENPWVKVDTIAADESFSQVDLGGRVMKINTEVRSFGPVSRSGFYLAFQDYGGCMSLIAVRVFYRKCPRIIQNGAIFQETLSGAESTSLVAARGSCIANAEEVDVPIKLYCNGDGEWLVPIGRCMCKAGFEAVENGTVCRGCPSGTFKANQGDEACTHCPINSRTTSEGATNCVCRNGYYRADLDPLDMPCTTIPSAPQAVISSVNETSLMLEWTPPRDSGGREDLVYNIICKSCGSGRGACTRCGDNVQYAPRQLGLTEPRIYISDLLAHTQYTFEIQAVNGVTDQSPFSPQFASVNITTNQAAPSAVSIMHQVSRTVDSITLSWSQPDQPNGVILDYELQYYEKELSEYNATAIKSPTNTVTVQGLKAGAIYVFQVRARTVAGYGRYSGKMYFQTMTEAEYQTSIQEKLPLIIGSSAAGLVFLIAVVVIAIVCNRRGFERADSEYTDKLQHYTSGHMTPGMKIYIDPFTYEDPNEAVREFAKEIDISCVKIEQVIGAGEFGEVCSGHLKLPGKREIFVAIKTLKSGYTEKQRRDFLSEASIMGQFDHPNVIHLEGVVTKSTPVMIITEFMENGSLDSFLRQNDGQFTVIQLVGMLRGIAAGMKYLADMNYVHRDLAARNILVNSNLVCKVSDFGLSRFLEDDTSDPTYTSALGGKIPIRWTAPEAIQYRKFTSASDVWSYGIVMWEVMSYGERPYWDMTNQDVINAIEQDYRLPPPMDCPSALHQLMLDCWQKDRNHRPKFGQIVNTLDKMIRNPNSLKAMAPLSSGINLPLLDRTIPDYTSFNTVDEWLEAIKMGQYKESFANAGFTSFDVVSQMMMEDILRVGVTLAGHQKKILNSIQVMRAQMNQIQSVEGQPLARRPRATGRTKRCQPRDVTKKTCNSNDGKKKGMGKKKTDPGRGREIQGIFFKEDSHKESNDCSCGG
Chain of Ephrin type-A receptor 3 (P29320 whole entry, the tested form may be a part): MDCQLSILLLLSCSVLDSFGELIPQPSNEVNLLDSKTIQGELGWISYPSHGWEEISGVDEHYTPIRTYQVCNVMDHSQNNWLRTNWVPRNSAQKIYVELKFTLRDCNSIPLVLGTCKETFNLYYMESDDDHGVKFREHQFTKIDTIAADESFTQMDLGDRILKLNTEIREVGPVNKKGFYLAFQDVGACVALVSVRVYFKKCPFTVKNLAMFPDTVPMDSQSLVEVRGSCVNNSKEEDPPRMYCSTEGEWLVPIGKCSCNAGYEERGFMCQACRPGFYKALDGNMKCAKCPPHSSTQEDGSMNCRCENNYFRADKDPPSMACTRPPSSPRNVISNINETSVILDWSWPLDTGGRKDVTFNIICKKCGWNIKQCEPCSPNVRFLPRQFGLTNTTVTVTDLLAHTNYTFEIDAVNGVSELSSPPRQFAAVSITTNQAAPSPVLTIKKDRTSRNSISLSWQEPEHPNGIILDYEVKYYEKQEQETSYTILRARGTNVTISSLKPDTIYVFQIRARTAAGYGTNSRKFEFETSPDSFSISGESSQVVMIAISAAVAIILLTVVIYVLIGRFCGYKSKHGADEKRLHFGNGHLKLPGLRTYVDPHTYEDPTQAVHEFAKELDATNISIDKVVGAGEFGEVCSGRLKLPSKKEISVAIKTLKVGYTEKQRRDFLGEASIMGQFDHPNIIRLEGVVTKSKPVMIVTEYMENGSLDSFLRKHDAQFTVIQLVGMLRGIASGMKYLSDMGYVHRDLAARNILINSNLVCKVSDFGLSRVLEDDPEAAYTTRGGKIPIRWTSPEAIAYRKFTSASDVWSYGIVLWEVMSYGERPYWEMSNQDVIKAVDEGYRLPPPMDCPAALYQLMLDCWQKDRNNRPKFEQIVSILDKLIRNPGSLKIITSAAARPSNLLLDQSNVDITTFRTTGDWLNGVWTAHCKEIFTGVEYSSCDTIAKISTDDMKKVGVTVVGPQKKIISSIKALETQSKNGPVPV

## CNc1ncc2cc(-c3cc(F)ccc3F)c(=O)n(CCCCN)c2n1
[1]
  ΔTm: 0.6 °C
[2]
  ΔTm: 0.9 °C
[3]
  ΔTm: 0 °C
Ephrin type-A receptor 2 [4]
  ΔTm: 8.9 °C
[5]
  ΔTm: 7.4 °C
[6]
  ΔTm: 7 °C
[7]
  ΔTm: 5.9 °C
Ephrin type-A receptor 4 [8]
  ΔTm: 5.5 °C
Ephrin type-A receptor 2 [9]
  IC50: 2.1 µM
[10]
  IC50: 33.8 µM
Ephrin type-B receptor 3
  IC50: 18.3 µM
Ephrin type-A receptor 4 [11]
  IC50: 1.6 µM
Ephrin type-A receptor 3
  IC50: 2.1 µM
Ephrin type-B receptor 2
  IC50: 22.6 µM
[12]
  inhibition: Active
[13]
  inhibition: Active
SK-OV-3 [14]
  Activity: 50%
[15]
  inhibition: Active
[16]
  inhibition: Active
HCT-116 [17]
  Activity: Toxic
HCT-116 [18]
  Activity: Toxic
HCT-116 [19]
  Activity: 30%
[20]
  Drug metabolism: Metabolite_Detected
SK-OV-3 [21]
  Activity: 69%
[22]
  ΔTm: 15.1 °C

— ChEMBL document CHEMBL5325437, “Shifting the selectivity of pyrido[2,3-d]pyrimidin-7(8H)-one inhibitors towards the salt-inducible kinase (SIK) subfamily” (Eur J Med Chem, 2023)
